Results reported in article PMC7356761 (Molecules, 2020).
“And” between values parts separate entries of the source, which are not always exact repeats. Identical values can stand only once.

Legend:
[1] = tested on: H1975 tumor; assay: Biodistribution in tumor-bearing mice, H1975 tumor; assay type: in vivo, mouse; details: for effect of CO-1686 pretreatment on accumulation in H1975 tumor: excess dose CO-1686 (30 mg/kg i.p.) 1 h prior
Experimental: (§1) Male ddY mice (27–30 g, 6 weeks old) and female BALB/c nu/nu mice (12–17 g, 4 weeks old) were purchased from Japan SLC Inc. (Hamamatsu, Japan). The mice were housed in a cage with free access to food and water maintained at a constant temperature (23–25 °C) with a 12 h light/dark cycle. […] The tumor reached palpable size 2- and 3-weeks post-inoculation. Animal experiments were conducted in accordance with laboratory guidelines for the care and use of animals of Kanazawa University. The animal handling protocol was approved by the Kanazawa University Animal Care Committee (approval number: AP-163766). 3.10. Biodistribution Studies Mice were injected intravenously via the lateral tail vein with a saline solution of [^125I]10 (25 kBq, 100 μL) containing 1% tween-80 and 10% ethanol. The ddY mice were sacrificed at 10 min, 1, 4 and 24 h; meanwhile, the tumor-bearing mice were sacrificed at 1 and 4 h post injection. The selected tissues and organs were collected and weighed and their radioactivity was measured using an auto well gamma counter. […] The mice were sacrificed 1 h after the administration of radiotracer. The biodistribution data are expressed as percent injected dose per gram of tissue (% ID/g) along with the SD.

[2] = Partition coefficient, shake-flask n-octanol/phosphate buffer; assay type: physicochemical; details: n-octanol/0.1 M phosphate buffer pH 7.4, shake-flask
Experimental: 3.6. Determination of Partition Coefficient
The partition coefficient of [^125I]10 was measured, as previously reported with a slight modification. Briefly, [^125I]10 was added to the mixture of each 3 mL of n-octanol and 0.1 M phosphate buffer (pH 7.4) in a test tube. The test tube was vortexed for 1 min, left at room temperature for 10 min and centrifuged at 3000× g and 4 °C for 5 min. The n-octanol layer (2 mL) was transferred into a new test tube followed by adding 1 mL of new n-octanol and 3 mL of phosphate buffer. The radioactivity of each 1 mL layer, n-octanol and phosphate buffer was measured using an auto well gamma counter (n = 4). The log P value was calculated by the logarithm of the ratio of radioactivity per milliliter (cpm/mL) in n-octanol to that in phosphate buffer and represents mean ± SD.

[3] = Biodistribution in normal ddY mice; assay type: in vivo, mouse
Experimental: as §1

What does the source list for `C=CC(=O)Nc1cc([125I])cc(Nc2nc(Nc3ccc(N4CCN(C(C)=O)CC4)cc3OC)ncc2C(F)(F)F)c1` [[^125I]10]?
effect of CO-1686 pretreatment on accumulation in H1975 tumor [1]: not inhibited; effect of CO-1686 pretreatment on accumulation in H1975 tumor ([1]; listed as [^125I]ICO1686): not reduced; tumor/blood ratio ([1]; tumor-bearing mice): approximately 1; Biodistribution, H1975 tumor ([1]; tumor-bearing mice, Blocking (1 h), CO-1686 30 mg/kg i.p. 1 h prior): 1.65 (0.64) % ID/g tissue; Biodistribution, H1975 tumor ([1]; tumor-bearing mice, i.v., 1 h): 1.77 (0.43) % ID/g tissue; Biodistribution, H1975 tumor ([1]; tumor-bearing mice, i.v., 1 h, listed as [^125I]ICO1686): 1.77 ± 0.43 % ID/g tissue; Biodistribution, H1975 tumor ([1]; tumor-bearing mice, i.v., 4 h): 0.43 (0.08) % ID/g tissue; logP [2]: 1.84 ± 0.01; radiotracer excreted in feces ([3]; 24 h after injection): ~70%; Biodistribution, Blood ([3]; i.v., 10 min): 1.06 (0.19) % ID/g tissue; Biodistribution, Bone ([3]; i.v., 10 min): 1.16 (0.21) % ID/g tissue; Biodistribution, Brain ([3]; i.v., 10 min): 0.11 (0.02) % ID/g tissue; Biodistribution, Heart ([3]; i.v., 10 min): 3.11 (0.64) % ID/g tissue; Biodistribution, Kidney ([3]; i.v., 10 min): 7.48 (1.55) % ID/g tissue; Biodistribution, Large intestine ([3]; i.v., 10 min): 0.57 (0.04) % ID/g tissue; Biodistribution, Liver ([3]; i.v., 10 min): 26.69 (0.81) % ID/g tissue; Biodistribution, Lung ([3]; i.v., 10 min): 4.47 (1.39) % ID/g tissue; Biodistribution, Muscle ([3]; i.v., 10 min): 1.40 (0.16) % ID/g tissue; Biodistribution, Pancreas ([3]; i.v., 10 min): 1.93 (0.37) % ID/g tissue; Biodistribution, Small intestine ([3]; i.v., 10 min): 9.46 (2.19) % ID/g tissue; Biodistribution, Spleen ([3]; i.v., 10 min): 2.14 (0.50) % ID/g tissue; Biodistribution, Stomach ([3]; i.v., 10 min): 3.52 (2.70) % ID/organ; Biodistribution, Blood ([3]; i.v., 1 h): 0.49 (0.05) % ID/g tissue; Biodistribution, Bone ([3]; i.v., 1 h): 0.50 (0.22) % ID/g tissue; Biodistribution, Brain ([3]; i.v., 1 h): 0.05 (0.02) % ID/g tissue; Biodistribution, Heart ([3]; i.v., 1 h): 0.79 (0.13) % ID/g tissue; Biodistribution, Kidney ([3]; i.v., 1 h): 3.76 (0.40) % ID/g tissue; Biodistribution, Large intestine ([3]; i.v., 1 h): 0.53 (0.08) % ID/g tissue; Biodistribution, Liver ([3]; i.v., 1 h): 18.57 (2.72) % ID/g tissue; Biodistribution, Lung ([3]; i.v., 1 h): 1.33 (0.08) % ID/g tissue; Biodistribution, Muscle ([3]; i.v., 1 h): 0.44 (0.05) % ID/g tissue; Biodistribution, Pancreas ([3]; i.v., 1 h): 0.99 (0.26) % ID/g tissue; Biodistribution, Small intestine ([3]; i.v., 1 h): 23.96 (2.18) % ID/g tissue; Biodistribution, Spleen ([3]; i.v., 1 h): 0.90 (0.17) % ID/g tissue; Biodistribution, Stomach ([3]; i.v., 1 h): 5.10 (1.18) % ID/organ; Biodistribution, Blood ([3]; i.v., 4 h): 0.33 (0.07) % ID/g tissue; Biodistribution, Bone ([3]; i.v., 4 h): 0.29 (0.11) % ID/g tissue; Biodistribution, Brain ([3]; i.v., 4 h): 0.03 (0.01) % ID/g tissue; Biodistribution, Heart ([3]; i.v., 4 h): 0.35 (0.09) % ID/g tissue; Biodistribution, Kidney ([3]; i.v., 4 h): 2.37 (0.17) % ID/g tissue; Biodistribution, Large intestine ([3]; i.v., 4 h): 53.44 ± 6.73 % ID/g tissue and 53.44 (6.73) % ID/g tissue; Biodistribution, Liver ([3]; i.v., 4 h): 7.85 (0.92) % ID/g tissue; Biodistribution, Lung ([3]; i.v., 4 h): 0.86 (0.10) % ID/g tissue; Biodistribution, Muscle ([3]; i.v., 4 h): 0.13 (0.03) % ID/g tissue; Biodistribution, Pancreas ([3]; i.v., 4 h): 0.41 (0.03) % ID/g tissue; Biodistribution, Small intestine ([3]; i.v., 4 h): 9.81 (1.03) % ID/g tissue; Biodistribution, Spleen ([3]; i.v., 4 h): 0.58 (0.11) % ID/g tissue; Biodistribution, Stomach ([3]; i.v., 4 h): 1.38 (0.56) % ID/organ; Biodistribution, Blood ([3]; i.v., 24 h): 0.05 (0.01) % ID/g tissue; Biodistribution, Bone ([3]; i.v., 24 h): 0.07 (0.05) % ID/g tissue; Biodistribution, Brain ([3]; i.v., 24 h): 0.01 (0.01) % ID/g tissue; Biodistribution, Feces ([3]; i.v., 24 h): 69.9 % ID; Biodistribution, Heart ([3]; i.v., 24 h): 0.09 (0.05) % ID/g tissue; Biodistribution, Kidney ([3]; i.v., 24 h): 0.25 (0.01) % ID/g tissue; Biodistribution, Large intestine ([3]; i.v., 24 h): 0.34 (0.08) % ID/g tissue; Biodistribution, Liver ([3]; i.v., 24 h): 0.80 (0.10) % ID/g tissue; Biodistribution, Lung ([3]; i.v., 24 h): 0.26 (0.03) % ID/g tissue; Biodistribution, Muscle ([3]; i.v., 24 h): 0.04 (0.04) % ID/g tissue; Biodistribution, Pancreas ([3]; i.v., 24 h): 0.10 (0.11) % ID/g tissue; Biodistribution, Small intestine ([3]; i.v., 24 h): 0.10 (0.01) % ID/g tissue; Biodistribution, Spleen ([3]; i.v., 24 h): 0.08 (0.04) % ID/g tissue; Biodistribution, Stomach ([3]; i.v., 24 h): 0.08 (0.02) % ID/organ; Biodistribution, Urine ([3]; i.v., 24 h): 4.07 (0.83) % ID/g tissue
